The record followed here is paper PMC11855478, “Bicyclic N,S-Acetals Containing Fused Cysteine-Amide System as New Heterocyclic Class Targeting Human Farnesyltransferase (FTase-h)” (International Journal of Molecular Sciences, 2025).

The structures appear in SMILES notation.

Type in all cases: cell-based, human
In test [1] the test system is KM12 (Colon Cancer). Put plainly: NCI one dose, KM12. The conditions noted are these: KM12, 1.00E-5 Molar one dose. The method, then:
(§1) 3.4. Cell Proliferation Assay
(§2) Selected compounds were tested on a panel of 60 human cancer cell lines at the National Cancer Institute (NCI), Germantown, MD, USA. The cytotoxicity studies were conducted using a 48 h exposure protocol using the sulfo-rhodamine B assay.

Test [2] relates to NCI-H226 (Non-Small Cell Lung Cancer). The test can be described thus: NCI one dose, NCI-H226. Conditions: NCI-H226, 1.00E-5 Molar one dose. The method, then:
as §1, §2

Test [3] concerns HL-60(TB) (Leukemia). The test can be described thus: NCI one dose, HL-60(TB). The conditions noted are these: 1.00E-5 Molar one dose. As for the experimental part:
as §1, §2

With `COc1cc(CNC(=O)[C@@H]2CS[C@@]3(C)c4ccccc4C(=O)N23)cc(OC)c1OC` [4bJ], the “Growth Percent” value in test [1] turned out to be 106.18%.
`O=C(NCc1cccc(C(F)(F)F)c1)[C@@H]1CS[C@H]2c3ccccc3C(=O)N12` [4aD]: the entries for the “Growth Percent” value in test [2], in test [1] and in test [3] were 100.68%, 98.82% and 96.47%, respectively.
For the compound `COc1cccc(CNC(=O)[C@@H]2CS[C@H]3c4ccccc4C(=O)N23)c1` [4aE], in test [1], the “Growth Percent” value was found to be 100.40%.
Turning to `O=C(NCc1ccccc1C(F)(F)F)[C@@H]1CS[C@H]2c3ccccc3C(=O)N12` [4aC], the “Growth Percent” value came out at 95.46% in test [2], 102.90% in test [1] and 101.08% in test [3].
Turning to `O=C(NCc1ccccc1)[C@@H]1CS[C@H]2c3ccccc3C(=O)N12` [4aA], the “Growth Percent” value is given as 86.94% in test [2], 110.51% in test [1] and 102.43% in test [3].
In the case of `COc1ccc(CNC(=O)[C@@H]2CS[C@H]3c4ccccc4C(=O)N23)cc1` [4aF], the figures for the “Growth Percent” value in test [2], in test [1] and in test [3] were 101.53%, 100.55% and 97.30%, respectively.
As for `COc1ccc(CNC(=O)[C@@H]2CS[C@@]3(C)c4ccccc4C(=O)N23)cc1OC` [4bI], in test [1], the “Growth Percent” value was 102.81%.
`C[C@@]12SC[C@@H](C(=O)NCc3ccccc3)N1C(=O)c1ccccc12` [4bA]: the “Growth Percent” value in test [1] was 102.18%.
As for `COc1ccccc1CNC(=O)[C@@H]1CS[C@@]2(C)c3ccccc3C(=O)N12` [4bG], the “Growth Percent” value in test [1] came out at 103.74%.
Consider `COc1cc(CNC(=O)[C@@H]2CS[C@H]3c4ccccc4C(=O)N23)cc(OC)c1OC` [4aJ], for which the results for the “Growth Percent” value in test [2], in test [1] and in test [3] were 97.62%, 103.41% and 96.47%, respectively.
Turning to `C[C@@]12SC[C@@H](C(=O)NCc3ccccc3Br)N1C(=O)c1ccccc12` [4bB], the “Growth Percent” value in test [1] was determined as 100.14%.
`COc1ccc(CNC(=O)[C@@H]2CS[C@H]3c4ccccc4C(=O)N23)cc1OC` [4aI]: the “Growth Percent” value in test [1] was found to be 107.09%.
The same measure, in the same setting: the figure for `C[C@@]12SC[C@@H](C(=O)NCc3ccc(Cl)cc3Cl)N1C(=O)c1ccccc12` [4bH] is 101.11%; for `COc1ccccc1CNC(=O)[C@@H]1CS[C@H]2c3ccccc3C(=O)N12` [4aG] it is 105.74%.
`C[C@@]12SC[C@@H](C(=O)NCc3ccccc3C(F)(F)F)N1C(=O)c1ccccc12` [4bC]: in test [1], the “Growth Percent” value turned out to be 100.49%.
`COc1cccc(CNC(=O)[C@@H]2CS[C@@]3(C)c4ccccc4C(=O)N23)c1` [4bE]: the “Growth Percent” value in test [1] was determined as 107.56%.
For the compound `C[C@@]12SC[C@@H](C(=O)NCc3cccc(C(F)(F)F)c3)N1C(=O)c1ccccc12` [4bD], in test [1], the “Growth Percent” value was 99.50%.
With `O=C(NCc1ccc(Cl)cc1Cl)[C@@H]1CS[C@H]2c3ccccc3C(=O)N12` [4aH], the “Growth Percent” value in test [2] turned out to be 95.83%; in test [1] it was 99.99%; in test [3], 93.16%.
With `COc1ccc(CNC(=O)[C@@H]2CS[C@@]3(C)c4ccccc4C(=O)N23)cc1` [4bF], the “Growth Percent” value in test [1] is 96.53%.
